Results published in paper PMC5727165, “A switch in nucleotide affinity governs activation of the Src and Tec family kinases” (Scientific Reports, 2017).
Numbering of substitutions follows the chain as printed. Like-named read-outs stand apart in the source and are kept apart here.

Legend:
[1] = biological target: T1, Src^32K (Mus musculus, UniProt P05480); test: Fluorescence anisotropy binding of Mant-labelled nucleotides; details: direct Mant-nucleotide binding
T1 construct: mouse Src^85-535 (Src^32K); GST (cleaved yes); made in house; host or cells: baculovirus-infected Sf9 insect cells, co-expressed with human Csk
Source text: To characterise the nucleotide binding of Itk and Src, we purified recombinant wild type and mutant constructs of Itk and Src containing their respective SH3, SH2, and kinase domains (from here on referred to as Itk^32K, Src^32K, and Src^32KΔC, Fig. 1a). We confirmed the mass and homogeneity of isolated species by high-resolution anion exchange chromatography, intact mass spectrometry, and Western blotting with phospho-specific antibodies (Supplementary Figs 1–3). We performed fluorescence anisotropy measurements using Mant-labelled nucleotides. […] To avoid autophosphorylation during the course of the titration, we used the non-hydrolysable ATP analogue AMPPNP. […] Src^32K bound ADP approximately 6-fold more tightly than AMPPNP (Supplementary Fig. 4d).
Human Itk^171–620 (Itk^32K), mouse Src^85-535 (Src^32K), and mouse Src^85-523 (Src^32KΔC) as well as their respective point mutants were expressed as GST fusions in baculovirus-infected Sf9 insect cells. For the generation of Tyr527-phosphorylated Src^85-535, the protein was co-expressed with human Csk using pFastBac Dual (Invitrogen). Proteins were purified by sequential glutathione-sepharose affinity chromatography, TEV cleavage, high-resolution anion exchange, and size exclusion chromatography in a final buffer of 50 mM Tris, pH 7.5, 200 mM NaCl, 1 mM TCEP, 1% (v/v) glycerol.
(§1) The binding constants for ADP and AMPPNP were determined for Src and Itk proteins by fluorescence anisotropy, using 2′/3′-Mant-labelled nucleotides (Jena Bioscience). Increasing concentrations of Itk^32K, Itk^L351A or Src^32K were incubated with 40 μM Mant-nucleotide in 30 mM Tris pH 7.5, 200 mM NaCl, 5 mM MgCl2, and 1 mM TCEP. Measurements were made with a Perkin Elmer LS50B fluorimeter (λex = 355 nm, λem = 447 nm) at 20 °C. For each data point 50–60 measurements, each with an integration time of 1 s, were averaged. For competition nucleotide displacement assays, 40–80 μM of protein was incubated with 40 μM Mant-ADP until equilibrium was established. Unlabelled nucleotide was titrated into the reaction and fluorescence anisotropy monitored. The equilibrium inhibition constant for the unlabelled nucleotide was calculated from the fitted curve.

[2] = biological target: T2, Itk^32K (Homo sapiens, UniProt Q08881); test: Competition nucleotide displacement assay (Mant-ADP, fluorescence anisotropy); format: binding
T2 construct: Human Itk^171–620 (Itk^32K); GST (cleaved yes); made in house; host or cells: baculovirus-infected Sf9 insect cells
T2 sequence (Q08881 171-620): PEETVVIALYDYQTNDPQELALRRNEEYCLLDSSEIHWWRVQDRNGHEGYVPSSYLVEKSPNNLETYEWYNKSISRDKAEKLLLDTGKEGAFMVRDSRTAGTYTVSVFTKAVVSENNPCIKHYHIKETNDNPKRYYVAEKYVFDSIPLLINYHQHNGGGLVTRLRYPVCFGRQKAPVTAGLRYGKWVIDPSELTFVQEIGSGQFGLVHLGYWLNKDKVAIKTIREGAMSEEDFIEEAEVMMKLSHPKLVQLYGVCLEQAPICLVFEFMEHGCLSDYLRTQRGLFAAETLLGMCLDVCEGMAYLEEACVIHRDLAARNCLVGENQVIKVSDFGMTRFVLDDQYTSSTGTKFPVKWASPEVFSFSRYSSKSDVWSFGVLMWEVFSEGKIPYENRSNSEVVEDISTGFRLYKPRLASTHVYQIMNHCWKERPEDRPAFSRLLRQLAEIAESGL
Method: Figure 1 Autoinhibited Itk and Src kinases preferentially bind ADP. (a) Schematic of constructs evaluated in this study. Itk^32K, Src^32K, and Src^32KΔC contain the conserved module of SH3, SH2, and kinase (^32K) domains. Src^32K was truncated by […] to remove its C-terminal tail (inclusive of the Y527 phosphorylation site), generating a construct we refer to as Src^32KΔC (ΔC-tail). (b) Competition nucleotide displacement assay for Itk^32K. 40 μM Itk^32K was incubated with 40 μM Mant-ADP until equilibrium was established. Unlabelled ADP or AMPPNP was titrated into the reaction and fluorescence anisotropy monitored. Comparison of the equilibrium inhibition constants (K i) gives an indication of the relative strength of nucleotide binding. […] (c) Competition nucleotide displacement assay for Src^32K. 40 μM tail-phosphorylated Src^32K (pY527) or doubly phosphorylated Src^32K pY416 (pY527) was incubated with 40 μM Mant-ADP until equilibrium was established. Unlabelled ADP or AMPPNP was titrated into the reaction and fluorescence anisotropy monitored. Solid lines correspond to Src^32K, dashed lines to Src^32K pY416. AMPPNP binds to Src^32K with 20-fold weaker affinity than ADP. […] (d) Omit map showing clear electron density for ADP and a single magnesium ion in the nucleotide-binding pocket of Src. The magnesium is coordinated by Asn391, Asp404, and the α- and β- phosphates of ADP. The β-phosphate is directly coordinated by the guanidinium side chain of Arg388. […]
Since the concentration of ATP in the cell is typically higher than ADP[33],[34], we performed nucleotide competition assays in order to determine which nucleotide is bound in vivo. We measured the concentrations of ADP or AMPPNP required to displace Mant-ADP. […]
The binding constants for ADP and AMPPNP were determined for Src and Itk proteins by fluorescence anisotropy, using 2′/3′-Mant-labelled nucleotides (Jena Bioscience). […] Unlabelled nucleotide was titrated into the reaction and fluorescence anisotropy monitored. The equilibrium inhibition constant for the unlabelled nucleotide was calculated from the fitted curve.

[3] = biological target: T3, Src^32KΔC (Mus musculus, UniProt P05480); test: as above; format: binding; details: 40 μM Src^32KΔC, 40 μM Mant-ADP; read-out: Ki (equilibrium inhibition constant)
T3 construct: mouse Src^85-523 (Src^32KΔC); GST (cleaved yes); made in house; host or cells: baculovirus-infected Sf9 insect cells
Method: Figure 2 Itk adopts a Src-like autoinhibited conformation. (a) Competition nucleotide displacement assay for Src^32KΔC. 40 μM Src^32KΔC was incubated with 40 μM Mant-ADP until equilibrium was established. Unlabelled ADP or AMPPNP was titrated into the reaction and fluorescence anisotropy monitored. […] (b) Small angle X-ray scattering curves for Itk^32K (cyan), Src^32K (magenta), Src^32KΔC (blue), and Src^32K R175L (green). […] (d) Table of physical parameters obtained from the scattering curves for Itk^32K, Src^32K, Src^32KΔC, and Src^32K R175L. (e)Ab initio model of Itk^32K and docking of autoinhibited Src (2SRC.pdb) into the molecular envelope. Two orientations of the envelope are shown for clarity. (f) Ab initio molecular envelope for Src^32KΔC illustrates the fit of the crystal structure of autoinhibited Src. TEXT PRINTED IN THE PICTURE: (a) ADP: Src^32KΔC Ki (mM): 0.03 ± 0.008 | (a) ANP: Src^32KΔC Ki (mM): 0.69 ± 0.140
as §1

[4] = biological target: T4, Src^32KΔC L255A (Mus musculus, UniProt P05480, L257A); test: Differential scanning fluorimetry (thermal stability vs nucleotide concentration); format: binding
T4 construct: mouse Src^85-523 (Src^32KΔC); GST (cleaved yes); made in house; host or cells: baculovirus-infected Sf9 insect cells
Source text: (§2) Figure 3 An allosteric switch triggers nucleotide exchange. (a) Hydrophobic stack conservation in Src family kinases. The table illustrates the amino acid identity at each of the three positions in the hydrophobic stack in addition to the invariant tryptophan (Trp260 in Src) for all Src family kinase members. The positions are presented according to their N- to C-terminal order in the primary sequences. Where it was not possible to unambiguously determine the identity of the amino acid contributed by the SH2-kinase variable linker (V3), the residue is denoted by a question mark. (b) Small angle X-ray scattering of Itk^32K L351A (black). The scattering curve for wild type Itk^32K (cyan) is overlaid for comparison. […] (c) Rigid body modelling of Itk^32K L351A and fit to ab initio molecular envelope. Displacement of both the SH3 and SH2 domains is required for a good fit to the experimental scattering curve. (d) Determination of the binding constants of Itk^32K L351A for nucleotides by fluorescence anisotropy. […] (e) Determination of the thermal stabilities and relative binding affinities of non-phosphorylated Src^32KΔC L255A for nucleotides by differential scanning fluorimetry. […] TEXT PRINTED IN THE PICTURE: (d) Mant-ADP: Itk^32K L351A (non-phos) Kd (μM): 21.0 ± 2.1 | (d) Mant-ATP: Itk^32K L351A (non-phos) Kd (μM): 31.7 ± 2.7 | (e) ADP: Src^32KΔC L255A (non-phos) [nuc]1/2 (μM): 310 ± 20; Src^32KΔC L255A (non-phos) Tm^max (°C): 52.9; Src^32KΔC L255A (non-phos) ΔTm^max (°C): + 6.8 | (e) ATP: Src^32KΔC L255A (non-phos) [nuc]1/2 (μM): 100 ± 10; Src^32KΔC L255A (non-phos) Tm^max (°C): 54.2; Src^32KΔC L255A (non-phos) ΔTm^max (°C): + 8.1 | (e) apo: Src^32KΔC L255A (non-phos) Tm^max (°C): 46.1
Due to limiting protein concentrations, we were unable to obtain a binding curve by fluorescence anisotropy, so we instead used thermal stability measurements to investigate its nucleotide-binding properties. Determination of accurate binding constants from thermal stability measurements requires knowledge of the enthalpy of unfolding. However, for a given protein, the enthalpy of unfolding is independent of the ligand being tested, so comparison of the concentrations of nucleotide required for half maximal stabilisation is valid.
Thermal stabilities as a function of nucleotide concentration were measured by differential scanning fluorimetry (DSF). Samples contained 0.1 mg/ml protein in 50 mM Tris pH 7.5, 150 mM NaCl, 1 mM TCEP, and 5 mM MgCl2 with ADP, ATP, or AMPPNP concentrations ranging from 0–16 mM. Samples were measured in triplicate using a BioRad iQ™5 Multicolor Real-Time PCR Detection System. For detection of phosphorylated protein, samples were diluted and 1 ng and 15 ng were loaded to SDS-PAGE for Src and Itk proteins, respectively. Phosphorylation was measured by immunoblot.

[5] = biological target: T5, Itk^32K L351A (Homo sapiens, UniProt Q08881, L351A); test: Fluorescence anisotropy binding of Mant-labelled nucleotides
T5 construct: Human Itk^171–620 (Itk^32K); GST (cleaved yes); made in house; host or cells: baculovirus-infected Sf9 insect cells
T5 sequence (Q08881 171-620 L351A): T2 sequence (Q08881 171-620) with L181A
Source text: as §2
To establish whether hydrophobic stack disassembly triggers a switch in nucleotide binding of the kinase domain, we measured the binding of both unphosphorylated and activation loop phosphorylated (pY511) Itk^32K L351A to ADP and ATP.
as §1

[6] = Src^32KΔC L255A non-phosphorylated, DSF
[7] = Itk^32K L351A non-phosphorylated, read-out: Kd

In the case of Nc1ncnc2c1ncn2[C@@H]1O[C@H](COP(=O)(O)OP(=O)(O)NP(=O)(O)O)[C@@H](O)[C@H]1O [AMPPNP], the “fold difference in affinity, ADP tighter than AMPPNP” value [1] is reported as “approximately 6 fold”, the Ki ([2]; 40 μM Itk^32K, 40 μM Mant-ADP, read-out: Ki (equilibrium inhibition constant)) is reported as 7900 µM and the “fold difference in Ki, AMPPNP weaker than ADP” value ([2]; Itk^32K, displacement of Mant-ADP) is reported as ~41 fold. The Ki [3] was 690 ± 140 µM.
In the case of Nc1ncnc2c1ncn2[C@@H]1O[C@H](COP(=O)(O)OP(=O)(O)OP(=O)(O)O)[C@@H](O)[C@H]1O [ATP], the “additional thermal stability conferred by ATP over ADP” value ([4]; Src^32KΔC L255A non-phosphorylated) is reported as 1.3 °C, the “Tm^max” value [4, 6] is reported as 54.2 °C and the “[nuc]1/2 (nucleotide concentration for half maximal stabilisation)” value [4, 6] is reported as 100 ± 10 µM. The “relative binding of ATP versus ADP” value ([4]; Src^32KΔC L255A, from half maximal stabilisation concentrations) was “approximately three times better than ADP” and the Kd ([5]; activation loop-phosphorylated (pTyr511) Itk^32K L351A, read-out: Kd (binding constant)) was 37 µM.
Compound Mant-ADP has a Kd [5, 7] of 21 ± 2.1 µM.
Mant-ATP showed a Kd [5, 7] of 31.7 ± 2.7 µM.
